According to PubChem BioAssay AID179 (DTP/NCI, 2004):
pEC50, pIC50: −log10 of the molar value. Calls of active or inactive are those of the source.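 How the source made its calls: active means compounds giving half or more protection of infected cells from virus-caused growth loss, again on retest; inactive means the rest.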 Where a SMILES comes first, the peptide text is derived from it. [ ]: non-standard residue; d: D form. Hpg = N[CH](C(=O)O)c1ccc(O)cc1

System: CEM cells HIV-1 protection, formazan growth assay
Assay: NCI AIDS Antiviral Assay
Details: for pIC50: measured here: growth of uninfected CEM cells
Method in brief: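 Human CEM cells, uninfected and HIV-1-infected, received five drug concentrations, and growth was read by soluble formazan assay. Compounds giving at least 50% protection were retested; reproducible 100% protection defined confirmed active.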

CCOC(=O)c1ccc2c(=O)[nH]nc(CO)c2c1
pEC50: < 3.70 | pIC50: 3.93

CC1=C(CC/C(C)=C/CCC2(C)CCC([C@H](C)C(=O)O)OO2)C(C)(C)CCC1 (stereo partly drawn) (tested in a mixture with another compound)
outcome: inactive

[B]C(=O)NC(CC(C)C)C(=O)NCC(=O)NC1c2ccsc2C(=O)C1O (stereo not drawn) (tested in a mixture with another compound)
pEC50: < 3.70 | pIC50: < 3.70

COC(=O)C(=O)C(CC(=O)Nc1c(C)cccc1C)C(=O)OC (stereo not drawn)
pEC50: < 3.11 | pIC50: < 3.11

Cc1ccc(C2=C/C(=C/c3ccc(N(CCC#N)CCC#N)cc3)C(=O)O2)cc1C
pEC50: < 4.88 | pIC50: < 4.88

O=c1[nH]c2ccccc2c(O)c1N=Nc1ccc(S(=O)(=O)O)cc1
pEC50: < 3.70 | pIC50: < 3.70

CC1(C)OC(=O)c2c(cc(N3CCOCC3)oc2=O)O1
pEC50: < 3.70 | pIC50: < 3.70

CCCCc1c2c(nc3c1CCc1cc4cc5c(nc4nc1-3)-c1nc3c(c(CCCC)c1CC5)CCC/C3=N/OC)/C(=N\OC)CCC2
pEC50: < 4.00 | pIC50: 6.46

O=C(N/C(=C/c1ccc(Cl)cc1)c1nc2ccccc2c(=O)n1Nc1ccc([N+](=O)[O-])cc1[N+](=O)[O-])c1ccccc1
pEC50: < 3.70 | pIC50: 3.75

N#Cc1c(N2CCCC2)nsc1NCc1ccccc1
pEC50: < 3.70 | pIC50: < 3.70

CCc1cc[c]([Sb](=[O])([OH])[OH])cc1
outcome: inactive

COC1OC(C)C(NC(=O)OCC(Cl)(Cl)Cl)C2OC(C)(C)OC12 (stereo not drawn)
pEC50: < 3.48 | pIC50: < 3.48

CCCN1CN(c2ccccc2)C2(CCN(CCCC(=O)c3ccc(F)cc3)CC2)C1=O
pEC50: < 3.70 | pIC50: 5.52

O=C(c1ccccc1SSc1ccccc1C(=O)N1CSC[C@@H]1CO)N1CSC[C@H]1CO
pEC50: < 3.70 | pIC50: 3.97

COc1ccc(-c2cc(=O)c3c(O)cc(O)cc3o2)cc1OC
pEC50: < 4.15 | pIC50: < 4.15

COc1cc(NC=O)c2c(c1)SC(C)C(=O)N2 (stereo not drawn)
pEC50: 3.85 | pIC50: < 3.70

CC(C)CC(N)C(=O)NC(C(N)=O)c1ccc(O)cc1 (stereo not drawn) (H-Leu-[Hpg]-NH2; configuration not given here)
pEC50: < 3.70 | pIC50: < 3.70

CSc1nc2c(=O)oc(-c3ccc([N+](=O)[O-])cc3)nc2s1
pEC50: < 3.82 | pIC50: 5.27

C=CCN(N=O)C(=O)ON1C(=O)CCC1=O
pEC50: < 2.96 | pIC50: 3.56

CC(C)(C)c1ccc(-c2nc3ccc([N+](=O)[O-])cc3c(=O)o2)cc1
pEC50: < 3.70 | pIC50: 5.05

N#CCCN(c1ccc(/C=C2\N=C(c3ccc(Cl)cc3)OC2=O)cc1)S(=O)(=O)c1ccccc1
pEC50: < 4.14 | pIC50: < 4.14

Cc1cccc(NC(=S)NNC(=O)c2cc(-c3ccccc3)nc3ccccc23)c1
pEC50: < 3.70 | pIC50: 4.62

CNP(=O)(NC)NC
pEC50: < 3.70 | pIC50: < 3.70

C=C1C(=O)C=C2C=C3C(=O)C(C)(C)C[C@]3(O)C12C (stereo partly drawn)
pEC50: < 2.99 | pIC50: 6.41

Cc1c2c(n(CC(c3ccccc3)c3ccccc3)c1C)NN=C(C#N)S2(=O)=O
pEC50: < 3.70 | pIC50: < 4.00

OCCOCCO[P+]1(OCCOCCO)n2c3ccc2C(c2ccccc2)=C2C=CC(=N2)C(c2ccccc2)=c2ccc(n21)=C(c1ccccc1)C1=NC(=C3c2ccccc2)C=C1
pEC50: < 4.00 | pIC50: 7.10

Cc1ccc(S(=O)(=O)N(C)c2ccccc2)cc1
pEC50: < 3.70 | pIC50: 4.28

CCOP(=O)(OCC)/C(C#N)=C/c1cccn1C
pEC50: 4.33 | pIC50: 3.27

CC(C)(C)C(=O)OC12/C(=N/O)CCCCCC1c1ccccc12 (stereo not drawn)
pEC50: < 3.70 | pIC50: 4.43

CC(C)Sc1nc(C#N)cc2c1CCCC2
pEC50: < 3.70 | pIC50: 4.24

CSC1SCC2C(=O)N(C)C3(CC3C)C(=O)OCC(NC(=O)c3nc4ccccc4cc3O)C(=O)NC(C)C(=O)N(C)C1C(=O)N(C)C1(CC1C)C(=O)OCC(NC(=O)c1nc3ccccc3cc1O)C(=O)NC(C)C(=O)N2C (stereo not drawn)
pEC50: < 5.08 | pIC50: 8.58

OC1CCC[C@@H]1Sc1ccccc1 (stereo partly drawn)
outcome: inactive

Cc1nc2[nH]c(=S)[nH]c(=O)c2[nH]c1=O
pEC50: < 3.70 | pIC50: < 3.70

O=C1C=C(N2CCCC2)c2cc(N3CCCC3)ncc2C1=O
outcome: inactive

CSc1c2c([nH]c(=O)c1C#N)-c1ccccc1CC2
pEC50: < 3.70 | pIC50: 3.78

Cc1ccc(NC(c2ccccc2)P(=O)(c2ccccc2)c2ccccc2)cc1 (stereo not drawn)
pEC50: < 3.70 | pIC50: < 3.70

Cc1ccc(-n2[nH]nc(C#N)c2=O)cc1
pEC50: < 3.70 | pIC50: < 3.70

O=C1c2ccccc2S[C@@H](O)[C@@H]2CCCN12
outcome: inactive

Cc1nc(-c2nc(C)c(C(=O)/C=C/c3ccc([N+](=O)[O-])cc3)s2)sc1C(=O)/C=C/c1ccc([N+](=O)[O-])cc1
pEC50: < 4.32 | pIC50: < 4.32

COc1ccc(CCCNC(=O)Cc2cc(OC)c(OC)cc2CO)cc1OC
pEC50: < 3.70 | pIC50: 4.75

COC1/C=C/OC2(C)Oc3c(C)c(OC(C)=O)c4c(c3C2=O)C(=O)C=C(NC(=O)/C(C)=C\C=C\C(C)C(O)C(C)C(O)C(C)C(OC(C)=O)C1C)C4=O (stereo not drawn)
pEC50: < 3.70 | pIC50: 5.23

O=C1OC2CCCC1O2 (stereo not drawn)
pEC50: < 3.70 | pIC50: < 3.70

O=c1[nH]nc(Cc2ccccc2)n1/N=C/c1c(O)ccc2ccccc12
pEC50: 4.39 | pIC50: 3.76

CCOC(=O)/C=C\SCC(N)C(=O)O (stereo not drawn)
pEC50: < 3.24 | pIC50: 3.51

CCCC(=O)OCC1OC2OC(C)(C)OC2C2OC(C)(C)OC12 (stereo not drawn)
outcome: inactive

CC(=O)Nc1ccc(/C=C/c2ccc(N=C=S)cc2S(=O)(=O)O)c(S(=O)(=O)O)c1
pEC50: < 4.66 | pIC50: < 4.66

C=CCNC(=O)CN1NN=C(c2ccccc2)N1
pEC50: < 3.97 | pIC50: 4.03

Cn1c(=O)n2c(-c3ccccc3)c(-c3ccccc3)n2c1=O
pEC50: < 3.70 | pIC50: 3.99

C/C(=N\OC(=O)Nc1cccc(Cl)c1)c1ccccc1
pEC50: < 3.70 | pIC50: 4.49

O=CC(O)C(O)C(O)C(O)C(=O)NCCCCCCCCCCCCNC(=O)C(O)C(O)C(O)C(O)C=O (stereo not drawn)
pEC50: < 3.70 | pIC50: < 3.70

CCC(C)C(NC(=O)C(CCCCN)NC(=O)CNC(=O)C(NC(=O)C(NC(=O)C(NC(=O)C(Cc1ccccc1)NC(=O)C(C)NC(=O)C(CCCNC(=N)N)NC(=O)CNC(=O)C1CCCN1C(=O)CNC(=O)C(CCCNC(=N)N)NC(=O)C(CCC(N)=O)NC(=O)C(NC(=O)C(CCCNC(=N)N)NC(=O)C(NC(=O)C(CO)NC(=O)C(CCCCN)NC(=O)C(CCCNC(=N)N)NC(=O)C(NC(=O)C(CC(N)=O)NC(=O)C(N)CC(N)=O)C(C)O)C(C)CC)C(C)CC)C(C)C)C(C)OC1OC(CO)C(O)C(O)C1NC(C)=O)C(C)CC)C(=O)NCC(N)=O (stereo not drawn)
pEC50: 4.61 | pIC50: 4.30

COC1=CC(=O)[C@@]2(C)C(C)[C@H](c3ccccc3)[C@H]2C1=O (stereo partly drawn)
pEC50: < 3.60 | pIC50: < 3.60

CCOC(=O)C1CSC(=N)N1C(C)=O (stereo not drawn)
pEC50: 3.94 | pIC50: 3.91

COc1ccccc1NC(=O)C1=C(C)NC(C)=C(C(=O)Nc2ccccc2OC)C1c1ccc(C2C(C(=O)Nc3ccccc3OC)=C(C)NC(C)=C2C(=O)Nc2ccccc2OC)cc1
pEC50: < 5.79 | pIC50: < 5.79

Cc1cc2c(C)n(Cc3ccccc3Cl)nc2c(C(=O)O)c1C
pEC50: < 3.12 | pIC50: 3.83

CCN1C(NN)=NS(=O)(=O)c2ccccc21
pEC50: < 3.70 | pIC50: < 3.70

O=C1/C(=C/c2ccccc2F)Cc2ccccc21
pEC50: < 4.66 | pIC50: < 4.66
